Assay results from patent US9832994B2, “Thymol and totarol antibacterial composition” (COLGATE-PALMOLIVE COMPANY, priority 2011, dated 2017).

What was measured:
[1] = test system: E. coli; test: Minimum Inhibition Concentration (MIC) and Fractional Inhibitory Concentration (FIC) against E. coli; format: cell-based; conditions: Escherichia coli, single active, tryptic soy broth, 96 well plate, 16-24 hours at 37° C
Experimental: (§1) Minimum Inhibition Concentration (MIC) Serial dilutions of the active are combined with tryptic soy broth and 0.1 optical density of bacteria in a 96 well plate. The optical density of the mixture is measured after 16-24 hours at 37° C. An increase in optical density represents bacterial growth. The plate is analyzed to determine the minimum concentration needed to inhibit growth of bacteria. Numbers are reported in ppm. The MIC values are determined for thymol and totarol against E. Coli and S. aureus. The MIC dose response assay is conducted just as the MIC, however, one active's concentration is kept constant and the other active's concentration follows a two-fold serial dilution. Fractional Inhibition Concentration (FIC) The MIC values are also determined for thymol in the presence of totarol to determine the Fractional Inhibitory Concentration (FIC). This calculation accounts for the fractional activity of thymol and totarol within a MIC test. [formula] such that: [table]

[2] = test system: S. aureus; test: Minimum Inhibition Concentration (MIC) and Fractional Inhibitory Concentration (FIC) against S. aureus; format: cell-based; conditions: Staphylococcus aureus, single active, tryptic soy broth, 96 well plate, 16-24 hours at 37° C
Experimental: as §1

Structure (SMILES) | MIC [1] [µg/mL] | MIC [2] [µg/mL]
Cc1ccc(C(C)C)c(O)c1 [Thymol, thymol] | 125 | –
CC(C)c1c(O)ccc2c1CC[C@H]1C(C)(C)CCC[C@]21C [Totarol, totarol] | 125 | 31.2
